Experimental data from ChEMBL document CHEMBL1134215, “Influence of chain length and N-alkylation on the selective serotonin receptor ligand 9-(aminomethyl)-9,10-dihydroanthracene” (Bioorg Med Chem Lett, 2001).

How the values were obtained:
Assay type in all cases: cell-based
[1] = target: 5-hydroxytryptamine receptor 2A (Homo sapiens, UniProt P28223); test: Displacement of [3H]ketanserin from 5-hydroxytryptamine 2A receptor expressed NIH3T3 cells
D(2) dopamine receptor = D(2) dopamine receptor (Mus musculus, UniProt P61168); test: Binding affinity to Dopamine receptor D2 using [3H]spiperone as radioligand in stably transfected NIH3T3 cells
[2] = target: Sodium-dependent noradrenaline transporter (Mus musculus, UniProt O55192); test: Binding affinity to Norepinephrine transporter using [3H]-[…] as radioligand in stably transfected NIH3T3 cells
[3] = target: T1, 5-hydroxytryptamine receptor 2C (Mus musculus, UniProt P34968); test: Binding affinity to 5-hydroxytryptamine 2C receptor using [3H]Mesulergine as radioligand in stably transfected NIH3T3 cells
T1 sequence (P34968 whole entry): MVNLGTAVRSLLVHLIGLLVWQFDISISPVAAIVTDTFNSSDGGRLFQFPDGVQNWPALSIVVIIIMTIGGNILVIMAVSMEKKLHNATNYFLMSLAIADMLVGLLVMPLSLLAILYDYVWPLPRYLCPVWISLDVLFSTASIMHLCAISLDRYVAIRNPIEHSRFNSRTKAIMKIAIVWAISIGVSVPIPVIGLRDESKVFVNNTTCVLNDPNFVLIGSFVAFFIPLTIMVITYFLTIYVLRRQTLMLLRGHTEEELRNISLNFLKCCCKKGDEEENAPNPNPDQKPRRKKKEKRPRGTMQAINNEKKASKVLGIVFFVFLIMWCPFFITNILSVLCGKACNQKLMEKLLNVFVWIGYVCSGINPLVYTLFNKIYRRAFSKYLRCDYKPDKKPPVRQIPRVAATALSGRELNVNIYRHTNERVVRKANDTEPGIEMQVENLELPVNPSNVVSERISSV

[4] = target: Sodium-dependent serotonin transporter (Mus musculus, UniProt Q60857); test: Binding affinity to Serotonin transporter using [3H]-paroxetine as radioligand in stably transfected NIH3T3 cells
[5] = target: T1, 5-hydroxytryptamine receptor 2C; test: Binding affinity to 5-hydroxytryptamine 2C receptor measured using radioligand [3H]Mesulergine in stably transfected NIH3T3 cells

Sequence of D(2) dopamine receptor (P61168 whole entry): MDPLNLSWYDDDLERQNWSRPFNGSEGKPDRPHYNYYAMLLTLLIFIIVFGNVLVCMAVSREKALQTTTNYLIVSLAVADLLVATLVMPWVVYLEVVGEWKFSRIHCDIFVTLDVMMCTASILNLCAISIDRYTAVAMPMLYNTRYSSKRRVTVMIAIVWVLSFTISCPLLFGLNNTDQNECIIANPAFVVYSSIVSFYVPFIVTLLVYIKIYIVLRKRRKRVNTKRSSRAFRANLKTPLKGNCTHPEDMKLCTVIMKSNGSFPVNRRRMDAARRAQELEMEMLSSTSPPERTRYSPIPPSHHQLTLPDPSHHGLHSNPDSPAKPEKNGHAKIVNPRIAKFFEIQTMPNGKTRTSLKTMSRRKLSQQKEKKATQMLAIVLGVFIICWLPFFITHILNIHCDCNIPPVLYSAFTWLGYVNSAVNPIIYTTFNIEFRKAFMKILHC
Sequence of 5-hydroxytryptamine receptor 2A (P28223 whole entry): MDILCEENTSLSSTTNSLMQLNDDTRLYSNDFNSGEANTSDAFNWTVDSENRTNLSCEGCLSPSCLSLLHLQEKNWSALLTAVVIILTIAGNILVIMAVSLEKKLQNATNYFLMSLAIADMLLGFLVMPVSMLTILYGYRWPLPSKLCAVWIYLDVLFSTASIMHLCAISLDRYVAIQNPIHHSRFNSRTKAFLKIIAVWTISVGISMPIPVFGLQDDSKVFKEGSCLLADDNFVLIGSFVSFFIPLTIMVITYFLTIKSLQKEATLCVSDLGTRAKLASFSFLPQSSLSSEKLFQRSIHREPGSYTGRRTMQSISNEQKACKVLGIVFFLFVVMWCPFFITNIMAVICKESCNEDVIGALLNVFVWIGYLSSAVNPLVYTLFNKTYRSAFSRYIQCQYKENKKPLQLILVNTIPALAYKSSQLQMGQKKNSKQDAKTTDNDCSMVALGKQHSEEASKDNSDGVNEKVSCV
Sequence of Sodium-dependent serotonin transporter (Q60857 whole entry): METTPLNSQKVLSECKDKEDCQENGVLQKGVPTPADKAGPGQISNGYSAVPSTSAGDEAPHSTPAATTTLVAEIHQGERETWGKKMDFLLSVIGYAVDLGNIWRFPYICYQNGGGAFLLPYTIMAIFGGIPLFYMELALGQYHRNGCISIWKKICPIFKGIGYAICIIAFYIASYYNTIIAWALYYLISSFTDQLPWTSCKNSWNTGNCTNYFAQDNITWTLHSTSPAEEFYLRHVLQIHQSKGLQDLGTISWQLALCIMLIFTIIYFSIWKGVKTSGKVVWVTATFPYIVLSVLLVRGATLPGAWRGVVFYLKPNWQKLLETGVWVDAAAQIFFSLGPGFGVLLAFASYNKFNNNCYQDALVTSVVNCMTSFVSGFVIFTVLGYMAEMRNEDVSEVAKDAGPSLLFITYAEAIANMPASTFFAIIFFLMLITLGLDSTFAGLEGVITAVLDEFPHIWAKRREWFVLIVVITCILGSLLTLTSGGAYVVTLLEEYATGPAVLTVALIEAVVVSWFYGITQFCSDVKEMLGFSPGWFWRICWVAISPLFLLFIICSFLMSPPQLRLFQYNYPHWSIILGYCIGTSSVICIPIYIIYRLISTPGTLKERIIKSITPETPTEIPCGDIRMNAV
Sequence of Sodium-dependent noradrenaline transporter (O55192 whole entry): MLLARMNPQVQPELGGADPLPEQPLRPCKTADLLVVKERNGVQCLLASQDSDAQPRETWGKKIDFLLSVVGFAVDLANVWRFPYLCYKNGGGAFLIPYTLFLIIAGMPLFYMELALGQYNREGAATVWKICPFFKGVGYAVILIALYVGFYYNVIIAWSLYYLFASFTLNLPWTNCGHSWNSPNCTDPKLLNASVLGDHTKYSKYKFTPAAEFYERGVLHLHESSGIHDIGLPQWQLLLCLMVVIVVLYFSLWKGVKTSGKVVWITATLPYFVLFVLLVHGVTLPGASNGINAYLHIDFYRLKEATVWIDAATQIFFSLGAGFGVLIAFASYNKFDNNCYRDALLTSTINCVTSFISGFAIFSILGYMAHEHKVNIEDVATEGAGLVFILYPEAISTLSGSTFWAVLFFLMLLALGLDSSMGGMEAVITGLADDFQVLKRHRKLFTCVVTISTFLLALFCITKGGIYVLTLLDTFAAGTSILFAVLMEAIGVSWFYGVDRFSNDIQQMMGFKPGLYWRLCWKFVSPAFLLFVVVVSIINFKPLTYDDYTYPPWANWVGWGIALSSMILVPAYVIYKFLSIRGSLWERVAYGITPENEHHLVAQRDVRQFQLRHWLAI

Compound | Ki [1] [nM] | further results
CNCCCC1c2ccccc2Cc2ccccc21 | 13 | 
CN(C)CCCN1c2ccccc2CCc2ccccc21 [IMIPRAMINE] |  | Ki (D(2) dopamine receptor): 726 nM
CNCC1c2ccccc2Cc2ccccc21 | 52 | 
NCCCC1c2ccccc2Cc2ccccc21 | 32 | 
CN1CCC(=C2c3ccccc3C=Cc3ccccc32)CC1 [CYPROHEPTADINE] |  | Ki [2]: 290 nM; Ki (D(2) dopamine receptor): 112 nM; Ki [3]: 11 nM; Ki [4]: 4.1 µM
c1ccc(CNCC2c3ccccc3Cc3ccccc32)cc1 | 721 | 
NCC1c2ccccc2Cc2ccccc21 |  | Ki [2]: > 10000 nM; Ki (D(2) dopamine receptor): > 10000 nM; Ki [4]: > 10 µM; Ki [5]: 43 nM
CN(C)CCCC1c2ccccc2Cc2ccccc21 | 22 | 

Second part, led by results:

Ki [1] [nM] | Compound | further results
540 | CN(C)CC1c2ccccc2Cc2ccccc21 | 
480 | NCCC1c2ccccc2Cc2ccccc21 | 
4000 | C[N+](C)(C)CC1c2ccccc2Cc2ccccc21 | 
12000 | NC1c2ccccc2Cc2ccccc21 | 
397 | NCCCN1c2ccccc2CCc2ccccc21 | 
